What all share (type): cell-based
The target of assay [1] is T1, urate transporter 1 (URAT1) (Homo sapiens, UniProt Q96S37).
T1 construct: gene SLC22A12; human URAT1 cDNA in pCMV-SPORT6, transiently transfected into HEK293/PDZK1 cells
T1 sequence (Q96S37 1-553): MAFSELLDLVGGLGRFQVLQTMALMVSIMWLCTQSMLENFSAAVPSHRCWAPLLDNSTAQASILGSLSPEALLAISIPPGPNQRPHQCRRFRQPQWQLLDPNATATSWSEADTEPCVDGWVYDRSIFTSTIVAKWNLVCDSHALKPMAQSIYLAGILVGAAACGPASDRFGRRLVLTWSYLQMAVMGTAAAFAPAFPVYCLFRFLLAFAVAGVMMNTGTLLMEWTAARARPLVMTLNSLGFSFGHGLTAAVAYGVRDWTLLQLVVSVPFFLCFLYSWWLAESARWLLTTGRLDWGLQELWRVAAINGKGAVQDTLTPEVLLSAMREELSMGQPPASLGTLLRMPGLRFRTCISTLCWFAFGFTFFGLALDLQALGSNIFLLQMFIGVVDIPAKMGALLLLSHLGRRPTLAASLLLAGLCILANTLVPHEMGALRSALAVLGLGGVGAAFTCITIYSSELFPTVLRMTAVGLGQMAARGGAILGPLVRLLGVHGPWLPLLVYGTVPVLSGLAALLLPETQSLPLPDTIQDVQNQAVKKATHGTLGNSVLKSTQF
The experiment in a line: [[…]-14C]uric acid uptake in URAT1-transfected HEK293/PDZK1 cells, mock-subtracted; Lineweaver-Burk kinetics.

The target of assay [2] is T1, urate transporter 1 (URAT1). The experiment in a line: [[…]-14C]uric acid uptake in URAT1-transfected HEK293/PDZK1 cells, single concentration […]. Particulars: read-out: Urate Uptake (% of Control).
Assay [3] has the same target. Kind of assay: radiolabelled uptake, […], Lineweaver-Burk plot.

As to `COc1ccc2ccc(=O)oc2c1CC=C(C)C` [compound 1, osthol], the 50% inhibitory concentration (IC50) (in general, the concentration that inhibits the measured activity by half) in assay [1] came to 78.8 µM. `CC(C)=CCc1c(O)ccc2ccc(=O)oc12` [osthenol]: the remaining activity at 100 µM in assay [2] came to 31 ± 4%.

With `O=c1[nH]c(=O)c2[nH]c(=O)[nH]c2[nH]1` [uric acid], the “radiolabelled uptake, 25-200 μM, Lineweaver-Burk plot” value in assay [3] is “The uptakes of uric acid into the cells (V) were measured, and a Lineweaver–Burk plot was made”.

Values taken from PMC6278453, “Effects of Osthol Isolated from Cnidium monnieri Fruit on Urate Transporter 1” (Molecules, 2018).
